Literature values as cited in patent publication US20070071689A1, “Advantageous combination for inhalation of nacystelyn and bronchodilators” (GALEPHAR M/F, priority 2003, published 2007).

Key:
[1] = administration via the inhalation route
[2] = in comparison to ACC
cystic fibrosis patients = conditions: in comparison to placebo

Compound	bronchospasms (side effects) [1]	active dose [2]	mucolytic and antioxidant activity [2]	number and severity of lung exacerbations (cystic fibrosis patients)
CC(=O)N[C@@H](CS)C(=O)O [ACC, acetylcysteine]	can be responsible for reflex bronchospasms	–	–	–
L-Lysine N-Acetylcysteinate [NAL]	–	active at lower doses than ACC	superior to the activity of ACC	significantly decrease the number and severity of lung exacerbations
